Laboratory results: patent US12668599B2, “Heterobifunctional compounds and methods of treating disease” (Halda Therapeutics OpCo, Inc., priority 2023, dated 2026)

What was measured:
T47D cells = assay: Cellular growth inhibition assay for T47D cells (CellTiter-Glo 2.0, 72 hours); format: cell-based, human; settings: Homo sapiens, T47D, 72 h
Method: Exemplary compounds were tested for ability to inhibit the proliferation of T47D cells. T47D cells are a commercially available human breast cancer cell line.
T47D cells were purchased from American Type Cell Culture (ATCC Cat #HTB-133) and then seeded on poly-D-lysine coated, black clear-bottom 384-well plates at 3000/well in 25 μL Dulbecco's Modified Eagle Medium (DMEM) supplemented with 10% w/w Fetal bovine serum (FBS), 0.2 units/mL recombinant human insulin (Gibco Cat #12585014), and 1% w/w Pen-Strep. Pen-Strep is a commercially available mixture of penicillin G and streptomycin, which is used in mammalian cell culture media to prevent bacterial contamination. Dulbecco's Modified Eagle Medium (DMEM) supplemented with 10% w/w fetal bovine serum (FBS), 0.2 units/mL recombinant human insulin, and 1% w/w Pen-Strep is herein referred to as Treatment Medium. Following seeding of cells in the plates, the plates were spun at 300×g for 30 seconds, then equilibrated to room temperature for 30 minutes, and then deposited in a humidified tissue culture incubator maintained at 37° C. with 5% CO2.
At 24 hours after seeding of the cells, dilutions of test compound were prepared in DMSO and dissolved in Treatment Medium, to achieve a final DMSO concentration of 0.5% w/w, thereby providing the Test Compound Solution. A 25 μL aliquot of the Test Compound Solution was added to cells in the well plates. An equal volume of a solution containing DMSO and Treatment Medium was used as a negative control. Following treatment of cells with Test Compound Solution or said equal volume of a solution containing DMSO and Treatment Medium, the plates were spun at 300×g for 30 seconds, and then left in an incubator for 72 hours.
At the end of the treatment duration, cell viability was quantified with CellTiter-Glo 2.0 reagent (Promega Cat #G9243). For this purpose, plates were equilibrated to room temperature for 30 minutes, and then 25 μL of CellTiter-Glo 2.0 reagent was added to cells in the plate wells. Plates were then agitated on a shaker for two minutes at 500 rpm and subsequently incubated at room temperature for 10 minutes. Following incubation, the plates were spun at 3000×g for 30 seconds, then sealed with an optical adhesive cover, and luminescence readings were measured with an En Vision Plate Reader (Perkin Elmer).
Data was normalized using zero luminescence for baseline. A four-parameter non-linear regression curve fit was applied to dose-response data in GraphPad Prism data analysis software to determine the half-maximal growth inhibitory concentration (GI50) for each test compound.

[1] = test system: androgen receptor WT, T878A, L702H and H875Y and BRD4 protein; assay: Ternary complex formation in TRex293 cells with doxycycline inducible androgen receptor (AR capture / HRP-BRD4 antibody ELISA); format: cell-based; settings: Trex293 cells engineered to express wtAR and the T878A, L702H and H875Y AR mutants, 1 hour treatment, FIG. 2
Method: Compound II-5 was tested for ability to form a ternary complex containing Compound II-5, androgen receptor, and bromodomain-containing protein 4 (BRD4) protein using TRex293 cells induced to express elevated levels of androgen receptor.
TRex293 cells expressing doxycycline inducible androgen receptor WT, T878A, L702H and H875Y were generated and cultured in DMEM medium supplemented with 10% heat inactivated fetal bovine serum, and 1% pen-strep (culture medium). 25,000 cells were seeded per well in 100 μL of phenol red free DMEM containing 10% CSS, 1% pen strep, and 10 ng/mL doxycycline in a clear 96-well poly-D-lysine coated plate. Plates were incubated at 37° C. Black, opaque 96-well MaxiSorp plates were coated with 50 μL of androgen receptor antibody diluted in phosphate buffered saline (PBS). The coated plates were sealed and placed at 4° C. overnight. Plates coated with androgen receptor antibody were washed three times with 200 μL 1× tris -buffered saline plus 0.1% Tween20 (TBST), then blocked with 200 μL of 3% bovine serum albumin in TBST for 1 hour at room temperature. Test compound titrations were diluted in culture medium. 100 μL of the test compound/media mixture was added to the cell plate. After treatment, plates were incubated for 1 hour. Then, cells were washed once with 250 μL 1× PBS. […] Fluorescent endpoint read was conducted on a SpectraMax plate reader.

[2] = molecular target: T1, androgen receptor (AR) and bromodomain-containing protein 4 (BRD4) protein (Homo sapiens, UniProt O60885+P10275); assay: Ternary complex formation in VCaP cells (AR capture antibody ELISA); format: cell-based; settings: FIG. 1
T1 construct: endogenous in cells; host or cells: VCaP cells
T1 sequence (P10275 whole entry, other chains not shown): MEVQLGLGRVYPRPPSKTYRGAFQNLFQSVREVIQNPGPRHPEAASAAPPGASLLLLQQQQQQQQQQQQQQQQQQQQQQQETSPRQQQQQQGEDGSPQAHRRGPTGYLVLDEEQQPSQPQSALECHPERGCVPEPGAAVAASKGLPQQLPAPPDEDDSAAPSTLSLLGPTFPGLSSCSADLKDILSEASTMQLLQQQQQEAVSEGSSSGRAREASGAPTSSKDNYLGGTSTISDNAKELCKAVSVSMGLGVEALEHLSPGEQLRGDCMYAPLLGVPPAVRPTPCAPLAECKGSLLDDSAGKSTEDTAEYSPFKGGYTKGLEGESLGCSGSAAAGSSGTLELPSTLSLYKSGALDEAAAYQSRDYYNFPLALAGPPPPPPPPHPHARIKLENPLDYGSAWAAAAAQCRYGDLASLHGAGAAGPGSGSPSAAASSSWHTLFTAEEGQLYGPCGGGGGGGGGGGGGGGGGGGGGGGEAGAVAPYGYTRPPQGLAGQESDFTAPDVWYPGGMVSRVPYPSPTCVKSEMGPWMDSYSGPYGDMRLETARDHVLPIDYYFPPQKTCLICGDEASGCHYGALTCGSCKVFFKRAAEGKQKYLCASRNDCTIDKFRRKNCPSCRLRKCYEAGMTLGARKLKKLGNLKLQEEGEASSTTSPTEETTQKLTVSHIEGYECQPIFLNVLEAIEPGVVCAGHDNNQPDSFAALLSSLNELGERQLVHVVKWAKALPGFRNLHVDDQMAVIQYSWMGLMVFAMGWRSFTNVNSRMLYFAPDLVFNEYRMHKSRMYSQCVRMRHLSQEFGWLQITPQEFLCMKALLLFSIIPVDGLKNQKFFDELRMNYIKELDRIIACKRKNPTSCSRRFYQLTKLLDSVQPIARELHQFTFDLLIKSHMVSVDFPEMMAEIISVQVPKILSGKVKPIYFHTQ
Method: Exemplary compounds were tested for ability to form a ternary complex containing a test compound, androgen receptor (AR), and bromodomain-containing protein 4 (BRD4) protein.
VCaP cells were cultured in ATCC DMEM medium supplemented with 10% ATCC fetal bovine serum, and 1% pen-strep (culture medium). 5000 cells were seeded in 100 μL of culture medium, per well in a clear 96-well poly-D-lysine coated plate. Plates were equilibrated to room temperature for 30 minutes. After equilibration, plates were incubated at 37° C. with 5% CO2 in a humidified tissue culture incubator. Black, opaque 96-well MaxiSorp plates were coated with 50 μL of a solution of androgen receptor antibody diluted in phosphate buffered saline (PBS). The coated plates were then quick-spun for 30 seconds before being sealed and placed in a fridge at 4° C. overnight. Test compounds were titrated in 100% DMSO the day before the experiment was performed and were left sealed in the dessicator overnight. QuantaRed™ Enhanced Chemifluorescent HRP Substrate Kit was taken out from 4° C. to warm up to room temperature. Plates coated with androgen receptor antibody were washed three times with 200 μL 1× Tris -Buffered Saline plus 0.1% Tween20 (TBST), then blocked with 200 μL 3% bovine serum albumin in TBST for approximately […] on a room temperature plate shaker at 500 rpm for 1 hour. […]

COc1cc(O[C@H]2C(C)(C)[C@H](NC(=O)c3cnc(N4CCC5(CC4)CC(Oc4ccc(C6=N[C@@H](Cc7ncco7)c7nnc(C)n7-c7sc(C)c(C)c76)cc4)C5)nc3)C2(C)C)ccc1C#N [II-5, N-[(1r,3r)-3-(4-cyano-3-methoxy-phenoxy)-2,2,4,4-tetramethyl-cyclobutyl]-2-[2-[4-[(9S)-4,5,13-trimethyl-9-(oxazol-2-ylmethyl)-3-thia-1,8,11,12-tetrazatricyclo[8.3.0.0^2,6]trideca-2 (6),4,7,10,12-pentaen-7-yl]phenoxy]-7-azaspiro[3.5]nonan-7-yl]pyrimidine-5-carboxamide]
GI50 (T47D cells): < 500 nM
ternary complex formation between Compound II-5, androgen receptor, and BRD4 [1]: detected
ternary complex formation between test compound, androgen receptor, and BRD4 [2]: detected
